ChEMBL document CHEMBL5537174, “Discovery of Potent SOS1 PROTACs with Effective Antitumor Activities against NCI-H358 Tumor Cells In Vitro/In Vivo” (J Med Chem, 2024)

How the values were obtained:
NCI-H358 [1] = assay: Antiproliferative activity against human NCI-H358 cells assessed as inhibition of cell proliferation incubated for 7 days by celltiter-glo 3D assay; format: functional, cell-based; settings: NCI-H358, 168 h
[2] = biological target: Protein cereblon/Son of sevenless homolog 1 (Homo sapiens, UniProt Q07889+Q96SW2); assay: PROTAC activity at CRBN/SOS1 in human NCI-H358 cells assessed as induction of SOS1 degradation incubated for 6 hrs by Western blotting analysis; format: cell-based
SOS1-KRAS = SOS1-KRAS (Homo sapiens, UniProt Q07889); assay: Inhibition of SOS1/KRAS G12C mutant (unknown origin); format: protein-complex assay
DLD-1 = assay: Antiproliferative activity against human DLD-1 cells harboring G13D mutant assessed as inhibition of cell proliferation incubated for 7 days by celltiter-glo 3D assay; format: functional, cell-based; settings: DLD-1, 168 h
NCI-H358 [3] = assay: Antiproliferative activity against human NCI-H358 cells harboring G12C mutant assessed as inhibition of cell proliferation incubated for 7 days by celltiter-glo 3D assay; format: functional, cell-based; settings: NCI-H358, 168 h
NCI-H441 = assay: Antiproliferative activity against human NCI-H441 cells harboring G12V mutant assessed as inhibition of cell proliferation incubated for 7 days by celltiter-glo 3D assay; format: functional, cell-based; settings: NCI-H441, 168 h
[4] = Antiproliferative activity against human GP2d cells harboring G12D mutant assessed as inhibition of cell proliferation incubated for 7 days by celltiter-glo 3D assay; format: functional, cell-based; settings: 168 h
[5] = Toxicity in BALB/c nude mouse xenografted with human NCI-H358 cells assessed as body weight loss at 30 mg/kg, ip measured every 3 days for 21 days; format: organism-based; settings: in vivo, 504 h, time 21 day
NCI-H358 [6] = assay: Antitumor activity against human NCI-H358 cells xenografted in BALB/c nude mouse assessed as tumor growth inhibition at 30 mg/kg, ip measured twice daily for 21 days; format: functional; settings: NCI-H358, 504 h, time 21 day, read-out: TGI
NCI-H358 [7] = assay: Antiproliferative activity against human NCI-H358 cells assessed as reduction in cell viability

Chain of Protein cereblon/Son of sevenless homolog 1 (Q07889 whole entry): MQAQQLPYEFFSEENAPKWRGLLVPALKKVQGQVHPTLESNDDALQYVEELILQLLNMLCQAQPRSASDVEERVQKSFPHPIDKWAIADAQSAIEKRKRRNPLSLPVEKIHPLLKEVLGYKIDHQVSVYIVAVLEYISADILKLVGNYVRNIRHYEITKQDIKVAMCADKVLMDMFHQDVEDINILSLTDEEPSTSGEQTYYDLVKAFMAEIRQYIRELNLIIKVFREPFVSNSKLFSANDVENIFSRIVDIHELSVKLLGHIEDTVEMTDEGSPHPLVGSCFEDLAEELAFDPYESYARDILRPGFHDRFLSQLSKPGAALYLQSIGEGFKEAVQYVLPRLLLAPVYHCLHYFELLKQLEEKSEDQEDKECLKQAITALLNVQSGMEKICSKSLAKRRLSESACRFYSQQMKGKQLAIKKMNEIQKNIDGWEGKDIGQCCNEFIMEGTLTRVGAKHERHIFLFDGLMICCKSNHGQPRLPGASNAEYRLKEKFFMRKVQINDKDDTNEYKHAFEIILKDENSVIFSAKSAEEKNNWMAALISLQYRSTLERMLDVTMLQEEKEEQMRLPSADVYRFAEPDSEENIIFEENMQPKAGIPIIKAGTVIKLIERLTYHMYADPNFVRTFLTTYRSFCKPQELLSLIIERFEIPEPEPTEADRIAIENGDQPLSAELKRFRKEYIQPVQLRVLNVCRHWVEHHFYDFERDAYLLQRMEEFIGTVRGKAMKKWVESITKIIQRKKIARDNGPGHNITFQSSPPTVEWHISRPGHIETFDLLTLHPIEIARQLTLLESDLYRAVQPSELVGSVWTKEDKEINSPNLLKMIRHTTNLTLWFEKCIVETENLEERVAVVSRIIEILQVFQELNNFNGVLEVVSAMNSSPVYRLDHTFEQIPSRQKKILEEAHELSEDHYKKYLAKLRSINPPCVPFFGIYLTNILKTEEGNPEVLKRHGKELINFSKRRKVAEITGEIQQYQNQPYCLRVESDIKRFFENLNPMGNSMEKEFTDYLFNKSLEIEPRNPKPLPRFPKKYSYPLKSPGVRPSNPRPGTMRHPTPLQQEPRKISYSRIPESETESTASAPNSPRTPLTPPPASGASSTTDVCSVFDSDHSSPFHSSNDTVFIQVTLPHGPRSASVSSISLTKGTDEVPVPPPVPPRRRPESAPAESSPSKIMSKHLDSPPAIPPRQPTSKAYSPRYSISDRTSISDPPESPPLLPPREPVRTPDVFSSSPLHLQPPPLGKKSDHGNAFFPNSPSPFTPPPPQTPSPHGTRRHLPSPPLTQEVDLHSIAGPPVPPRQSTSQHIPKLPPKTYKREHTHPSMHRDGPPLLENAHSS
Chain of Protein cereblon/Son of sevenless homolog 1 (Q96SW2 whole entry): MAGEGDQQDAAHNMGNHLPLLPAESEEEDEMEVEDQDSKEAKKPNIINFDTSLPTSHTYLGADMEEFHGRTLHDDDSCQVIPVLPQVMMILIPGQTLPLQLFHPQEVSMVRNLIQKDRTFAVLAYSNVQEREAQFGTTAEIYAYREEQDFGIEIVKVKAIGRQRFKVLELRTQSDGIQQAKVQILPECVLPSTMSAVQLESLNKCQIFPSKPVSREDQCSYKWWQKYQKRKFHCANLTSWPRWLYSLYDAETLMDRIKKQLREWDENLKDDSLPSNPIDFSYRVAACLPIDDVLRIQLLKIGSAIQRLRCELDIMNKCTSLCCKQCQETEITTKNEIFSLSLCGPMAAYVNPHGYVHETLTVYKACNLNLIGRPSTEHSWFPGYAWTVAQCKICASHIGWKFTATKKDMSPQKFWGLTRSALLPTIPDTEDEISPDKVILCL
Chain of SOS1-KRAS (Q07889 whole entry, looked up, stated change not applied): as the sequence (Q07889 whole entry) above

Row | SMILES | IC50 (NCI-H358 [1]) [nM] | also measured
1 | COc1cc2nc(C)nc(N[C@H](C)c3cc(N)cc(C(F)(F)F)c3)c2cc1OCC1(CN(C)C(=O)CCCCCNc2cccc3c2C(=O)N(C2CCC(=O)NC2=O)C3=O)CC1 (stereo partly specified) | 334 | 
2 | O=C(O)CCCCCCNc1cccc2c1C(=O)N(C1CCC(=O)NC1=O)C2=O (stereo unspecified) |  | DC50 [2]: Not Active
3 | COc1cc2nc(C)nc(N[C@H](C)c3cc(N)cc(C(F)(F)F)c3)c2cc1OCC1(CN(C)C(=O)CCCN(C)C2CCC(Nc3cccc4c3C(=O)N(C3CCC(=O)NC3=O)C4=O)CC2)CC1 (stereo partly specified) | 814 | 
4 | COc1cc2nc(C)nc(N[C@H](C)c3cc(N)cc(C(F)(F)F)c3)c2cc1OCC1(CN(C)C(=O)C2CCN(C3CCN(c4ccc5c(c4)C(=O)N(C4CCC(=O)NC4=O)C5=O)CC3)CC2)CC1 (stereo partly specified) | 684 | 
5 | COc1cc2nc(C)nc(N[C@H](C)c3cc(N)cc(C(F)(F)F)c3)c2cc1OCC1(CN(C)C(=O)CCCCCCNc2c(F)ccc3c2C(=O)N(C2CCC(=O)NC2=O)C3=O)CC1 (stereo partly specified) | 63 | 
6 | COc1cc2nc(C)nc(N[C@H](C)c3cc(N)cc(C(F)(F)F)c3)c2cc1OCC1(CN(C)C(=O)C2CCC(N3CCN(c4ccc5c(c4)C(=O)N(C4CCC(=O)NC4=O)C5=O)CC3)CC2)CC1 (stereo partly specified) | 1370 | 
7 | COc1cc2nc(C)nc(N[C@H](C)c3cc(N)cc(C(F)(F)F)c3)c2cc1OCC1(CN(C)C(=O)CCOCCNc2cccc3c2C(=O)N(C2CCC(=O)NC2=O)C3=O)CC1 (stereo partly specified) | 1660 | 
8 | COc1cc2nc(C)nc(N[C@H](C)c3cc(N)cc(C(F)(F)F)c3)c2cc1OCC1(CN(C)C(=O)CCCCCCNc2ccc3c(c2F)C(=O)N(C2CCC(=O)NC2=O)C3=O)CC1 (stereo partly specified) | 4180 | 
9 | COc1cc2nc(C)nc(N[C@H](C)c3cc(N)cc(C(F)(F)F)c3)c2cc1OCC1(CN(C)C(=O)CN2CCC(OC3CCN(c4ccc5c(c4)C(=O)N(C4CCC(=O)NC4=O)C5=O)CC3)CC2)CC1 (stereo partly specified) | 814 | 
10 | COc1cc2nc(C)nc(N[C@H](C)c3cc(N)cc(C(F)(F)F)c3)c2cc1OCC1(CN(C)C(=O)COCCNc2cccc3c2C(=O)N(C2CCC(=O)NC2=O)C3=O)CC1 (stereo partly specified) | 1380 | 
11 | CNCC1(COc2cc3c(N[C@H](C)c4cc(N)cc(C(F)(F)F)c4)nc(C)nc3cc2OC)CC1 | 102 | IC50 (SOS1-KRAS): 10 nM
12 | COc1cc2nc(C)nc(N[C@H](C)c3cc(N)cc(C(F)(F)F)c3)c2cc1OCC1(CN(C)C(=O)CCOCCC#Cc2cccc3c2C(=O)N(C2CCC(=O)NC2=O)C3=O)CC1 (stereo partly specified) | 1140 | 
13 | COc1cc2nc(C)nc(N[C@H](C)c3cc(N)cc(C(F)(F)F)c3)c2cc1OCC1(CN(C)C(=O)CN2CCN(C3CN(c4ccc5c(c4)C(=O)N(C4CCC(=O)NC4=O)C5=O)C3)CC2)CC1 (stereo partly specified) | 1200 | 
14 | COc1cc2nc(C)nc(N[C@H](C)c3cc(N)cc(C(F)(F)F)c3)c2cc1OCC1(CN(C)C(=O)CCNc2cccc3c2C(=O)N(C2CCC(=O)NC2=O)C3=O)CC1 (stereo partly specified) | 2890 | 
15 | COc1cc2nc(C)nc(N[C@H](C)c3cc(N)cc(C(F)(F)F)c3)c2cc1OCC1(CN(C)C(=O)CN2CCC(CN3CCN(c4ccc5c(c4)C(=O)N(C4CCC(=O)NC4=O)C5=O)CC3)CC2)CC1 (stereo partly specified) | 1080 | 
16 | COc1cc2nc(C)nc(N[C@H](C)c3cccc(C(F)F)c3F)c2cc1OCC1(CN(C)C(=O)CCCCCCNc2cccc3c2C(=O)N(C2CCC(=O)NC2=O)C3=O)CC1 (stereo partly specified) | 216 | DC50 ([2]; read-out: DC50): 540 nM
17 | COc1cc2nc(C)nc(N[C@H](C)c3cc(N)cc(C(F)(F)F)c3)c2cc1OCC1(CN(C)C(=O)CCC(=O)N(C)C2CCC(Nc3cccc4c3C(=O)N(C3CCC(=O)NC3=O)C4=O)CC2)CC1 (stereo partly specified) | 927 | 
18 | COc1cc2nc(C)nc(N[C@H](C)c3cc(N)cc(C(F)(F)F)c3)c2cc1OCC1(CN(C)C(=O)C2CCC(NC3CCN(c4ccc5c(c4)C(=O)N(C4CCC(=O)NC4=O)C5=O)CC3)CC2)CC1 (stereo partly specified) | 513 | 
19 | COc1cc2nc(C)nc(N[C@H](C)c3cc(N)cc(C(F)(F)F)c3)c2cc1OCC1(CN(C)C(=O)CCCCCCNc2nccc3c2C(=O)N(C2CCC(=O)NC2=O)C3=O)CC1 (stereo partly specified) | 318 | 
20 | COc1cc2nc(C)nc(N[C@H](C)c3cc(N)cc(C(F)(F)F)c3)c2cc1OCC1(CN(C)C(=O)C2CCN(C3CCC(Nc4cccc5c4C(=O)N(C4CCC(=O)NC4=O)C5=O)CC3)CC2)CC1 (stereo partly specified) | 51 | DC50 ([2]; read-out: DC50): 55 nM

More lines, in order of falling IC50 (NCI-H358 [1]), values ahead:

Row | IC50 (NCI-H358 [1]) [nM] | SMILES | also measured
21 | 2050 | COc1cc2nc(C)nc(N[C@H](C)c3cccc(C#N)c3C)c2cc1OCC1(CN(C)C(=O)CCCCCCNc2cccc3c2C(=O)N(C2CCC(=O)NC2=O)C3=O)CC1 (stereo partly specified) | 
22 | 1380 | COc1cc2nc(C)nc(N[C@H](C)c3cc(N)cc(C(F)(F)F)c3)c2cc1OCC1(CN(C)C(=O)CCCCCCNc2cccc3c2C(=O)N(C2CCC(=O)N(C)C2=O)C3=O)CC1 (stereo partly specified) | DC50 [2]: Not Active
23 | 928 | COc1cc2nc(C)nc(N[C@H](C)c3cc(N)cc(C(F)(F)F)c3)c2cc1OCC1(CN(C)C(=O)CN2CCN(C3CCN(c4ccc5c(c4)C(=O)N(C4CCC(=O)NC4=O)C5=O)CC3)CC2)CC1 (stereo partly specified) | 
24 | 799 | COc1cc2nc(C)nc(N[C@H](C)c3cc(N)cc(C(F)(F)F)c3)c2cc1OCC1(CN(C)C(=O)CCCCCCNc2ccc3c(c2)C(=O)N(C2CCC(=O)NC2=O)C3=O)CC1 (stereo partly specified) | 
25 | 733 | COc1cc2nc(C)nc(N[C@H](C)c3cc(N)cc(C(F)(F)F)c3)c2cc1OCC1(CN(C)C(=O)C2CCC(OC3CCN(c4ccc5c(c4)C(=O)N(C4CCC(=O)NC4=O)C5=O)CC3)CC2)CC1 (stereo partly specified) | 
26 | 591 | COc1cc2nc(C)nc(N[C@H](C)c3cc(N)cc(C(F)(F)F)c3)c2cc1OCC1(CN(C)C(=O)CCCCCC#Cc2cccc3c2C(=O)N(C2CCC(=O)NC2=O)C3=O)CC1 (stereo partly specified) | 
27 | 421 | COc1cc2nc(C)nc(N[C@H](C)c3cc(N)cc(C(F)(F)F)c3)c2cc1OCC1(CN(C)C(=O)CCOCCOCCNc2cccc3c2C(=O)N(C2CCC(=O)NC2=O)C3=O)CC1 (stereo partly specified) | 
28 | 358 | COc1cc2nc(C)nc(N[C@H](C)c3cccc(C(F)(F)C(C)(C)O)c3F)c2cc1OCC1(CN(C)C(=O)CCCCCCNc2cccc3c2C(=O)N(C2CCC(=O)NC2=O)C3=O)CC1 (stereo partly specified) | 
29 | 220 | COc1cc2nc(C)nc(N[C@H](C)c3cc(N)cc(C(F)(F)C(C)(C)O)c3)c2cc1OCC1(CN(C)C(=O)CCCCCCNc2cccc3c2C(=O)N(C2CCC(=O)NC2=O)C3=O)CC1 (stereo partly specified) | 
30 | 114 | COc1cc2nc(C)nc(N[C@H](C)c3cc(N)cc(C(F)(F)F)c3)c2cc1OCC1(CN(C)C(=O)COCCCCNc2cccc3c2C(=O)N(C2CCC(=O)NC2=O)C3=O)CC1 (stereo partly specified) | 
31 | 86 | COc1cc2nc(C)nc(N[C@H](C)c3cc(N)cc(C(F)(F)F)c3)c2cc1OCC1(CN(C)C(=O)CCCCNc2cccc3c2C(=O)N(C2CCC(=O)NC2=O)C3=O)CC1 (stereo partly specified) | 
32 | 84 | COc1cc2nc(C)nc(N[C@H](C)c3cc(N)cc(C(F)(F)F)c3)c2cc1OCC1(CN(C)C(=O)C2CCN(C(=O)C3CCN(c4ccc5c(c4)C(=O)N(C4CCC(=O)NC4=O)C5=O)CC3)CC2)CC1 (stereo partly specified) | 
33 | 75 | COc1cc2nc(C)nc(N[C@H](C)c3cc(N)cc(C(F)(F)F)c3)c2cc1OCC1(CN(C)C(=O)CCCCCCOc2cccc3c2C(=O)N(C2CCC(=O)NC2=O)C3=O)CC1 (stereo partly specified) | 
34 | 70 | COc1cc2nc(C)nc(N[C@H](C)c3cc(N)cc(C(F)(F)F)c3)c2cc1OCC1(CN(C)C(=O)CCCOCCNc2cccc3c2C(=O)N(C2CCC(=O)NC2=O)C3=O)CC1 (stereo partly specified) | 
35 | 47 | COc1cc2nc(C)nc(N[C@H](C)c3cc(N)cc(C(F)(F)F)c3)c2cc1OCC1(CN(C)C(=O)CCCCCCNc2cccc3c2CN(C2CCC(=O)NC2=O)C3=O)CC1 (stereo partly specified) | DC50 ([2]; read-out: DC50): 151 nM
36 | 26 | COc1cc2nc(C)nc(N[C@H](C)c3cc(N)cc(C(F)(F)F)c3)c2cc1O[C@H]1CCOC1 | IC50 (DLD-1): 102 nM; IC50 (NCI-H358 [3]): 26 nM; IC50 (NCI-H441): 68 nM; IC50 [4]: 17 nM; Activity [5]: Non-Toxic; inhibition in vivo at 30 mg/kg (NCI-H358 [6]): 39.4%; IC50 (NCI-H358 [7]): 24 nM
37 | 23 | COc1cc2nc(C)nc(N[C@H](C)c3cc(N)cc(C(F)(F)F)c3)c2cc1OCC1(CN(C)C(=O)CCCCCCNc2ccc(F)c3c2C(=O)N(C2CCC(=O)NC2=O)C3=O)CC1 (stereo partly specified) | DC50 ([2]; read-out: DC50): 63 nM
38 | 18 | COc1cc2nc(C)nc(N[C@H](C)c3cc(N)cc(C(F)(F)F)c3)c2cc1OCC1(CN(C)C(=O)C2CCN(CCNc3cccc4c3C(=O)N(C3CCC(=O)NC3=O)C4=O)CC2)CC1 (stereo partly specified) | DC50 ([2]; read-out: DC50): 44 nM
39 | 16 | COc1cc2nc(C)nc(N[C@H](C)c3cc(N)cc(C(F)F)c3)c2cc1OCC1(CN(C)C(=O)CCCCCCNc2cccc3c2C(=O)N(C2CCC(=O)NC2=O)C3=O)CC1 (stereo partly specified) | DC50 ([2]; read-out: DC50): 45 nM
40 | 15 | COc1cc2nc(C)nc(N[C@H](C)c3cc(N)cc(C(F)(F)F)c3)c2cc1OCC1(CN(C)C(=O)CCCOC2CCC(Nc3cccc4c3C(=O)N(C3CCC(=O)NC3=O)C4=O)CC2)CC1 (stereo partly specified) | DC50 ([2]; read-out: DC50): 35 nM
